Test [1] deals with patients with Huntington's disease. Kind of test: Add-on trial in patients with Huntington's disease (AIMS, UHDRS). Format: in vivo, human. The conditions noted are these: 2.5 to 20 mg b.i.d., typical trial. On the procedure: A typical trial to establish the effect of the compounds according to the invention on chorea, voluntary motor performance, and functional disability in patients with Huntington's disease encompasses 32 genetically diagnosed patients. (−)-(R)-2-{4-[[3,4-dihydro-2H-benzopyran-2-yl)-methyl]amino]butyl}-1,2-benzoisothiazol-3-(2H)-on-1,1-dioxide monohydrochloride or placebo is administered as “add on” to the conventional treatment, which is maintained unchanged during the whole study. The dose of blinded medication is titrated over a period of 3 weeks in a range from 2.5 to 20 mg b.i.d. Then the medication is held constant for 1 week. Assessments are performed in the week before and at the last day of the trial. Chorea is scored using the abnormal involuntary movement scale (AIMS, W. Guy, in: ECDEU assessment manual. Rockville Md: US dept. of health, education and welfare, 1976: 534-537), the unified Huntington's disease rating scale (UHDRS, Huntington study group, 1996, Movement Disord, 11: 136-42), and judgement of video recordings. Voluntary motor performance is assessed using the UHDRS motor scale. Patients and their partners complete a questionnaire regarding functional disability.

For test [2], the system named is neuroleptics sensitized monkey. Kind of test: Neuroleptics sensitized monkey, haloperidol challenge. The conditions noted are these: after haloperidol challenge, scoring system. The class given is in vivo. An excerpt: Another typical animal model is the neuroleptics sensitized monkey according to D. E. Casey, Psychopharmacology, 1996; 124: 134-140. Monkeys treated repeatedly with conventional neuroleptics are highly sensitive to a subsequent challenge dose of neuroleptic drugs. When challenged, the monkeys immediately show extrapyramidal motor side effects such as dystonia, dyskinesias, akathisia, and bradykinesia which are rated by a scoring system. The conventional neuroleptic drug haloperidol is given as a challenge.

For test [3], the system named is oxotremorine-induced tremor. Kind of test: Oxotremorine-induced tremor (rating scale). Format: in vivo. On the procedure: A typical animal model for drug-induced tremors is the oxotremorine-induced tremor (e.g. H. Hallberg and O. Almgren, Acta Physiol. Scand., 1987; 129: 407-13; J. G. Clement and W. R. Dyck, J. Pharmacol. Meth., 1989; 22: 25-36). Oxotremorine induces tremor which is measured by a rating scale. (−)-(R)-2-{4-[[3,4-dihydro-2H-benzopyran-2-yl)-methyl]amino]butyl}-1,2-benzoisothiazol-3-(2H)-on-1,1-dioxide or one of its pharmaceutically acceptable salt inhibit oxotremorine-induced tremors.

On to `O=C1c2ccccc2S(=O)(=O)N1CCCCNC[C@H]1CCc2ccccc2O1` [(−)-(R)-2-{4-[[3,4-dihydro-2H-benzopyran-2-yl)-methyl]amino]butyl}-1,2-benzoisothiazol-3-(2H)-on-1,1-dioxide], for which, in test [1] (AIMS, UHDRS, video), the involuntary motor performance result was “significant improvement”. In addition, the voluntary motor performance result in test [1] (UHDRS motor scale) is “significant improvement”. Further, the “extrapyramidal motor side effects (dystonia, dyskinesias, akathisia, bradykinesia)” value in test [2] was “dose-dependently reduce”. In test [3], the oxotremorine-induced tremors entry is given as “inhibit”.

The values above are taken from patent US20040235920A1, “Novel use of substituted aminomethyl chromans for the treatment of movement disorders and of adverse effects induced by drugs administered to treat extrapyramidal movement disorders” (priority 2001, published 2004).
